Data from US20250064954A1, “STEROIDS AND ANTIBODY-CONJUGATES THEREOF” (REGENERON PHARMACEUTICALS, INC., priority 2018, published 2025).

Experiments:
[1] = target: T1, Glucocorticoid Receptor (GR) (Homo sapiens, UniProt P04150); experiment: Cell based GR responsive luciferase reporter assay in HEK293/UASLuc/pBIND-GR cells; conditions: ratio of highest RLU on the dose response curve to RLU in untreated wells, 48 hours
T1 construct: host or cells: HEK293 stably expressing human full length PRLR
T1 sequence (P04150 524-758 limits assumed): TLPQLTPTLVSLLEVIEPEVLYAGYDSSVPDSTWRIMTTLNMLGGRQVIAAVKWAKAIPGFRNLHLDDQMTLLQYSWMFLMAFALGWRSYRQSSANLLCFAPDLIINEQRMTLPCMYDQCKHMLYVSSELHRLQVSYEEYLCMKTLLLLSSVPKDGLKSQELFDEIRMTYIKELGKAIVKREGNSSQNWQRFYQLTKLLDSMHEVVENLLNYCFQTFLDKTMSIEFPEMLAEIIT

[2] = target: T1, Glucocorticoid Receptor (GR); experiment: as above; conditions: for EC50: HEK293/UASLuc/pBIND-GR cells, 48 hours; for EC50 values after spacer attachment relative to parent steroid: comparison
From the text: A cell-based GR responsive luciferase reporter assay was used to test the GR agonist activity of compounds described herein. In this assay, the following materials were used.
To generate the assay cell line, HEK293 cells were co-transfected with the pBind-GR (Promega, Cat #E158A) and pGL4.35 [Luc2P/9xGAL4UAS/Hygro] (Promega, Cat #E137A) vectors. The pBind-GR vector expresses a fusion protein consisting of the yeast Gal4DNA-binding domain and the GR ligand binding domain, that can bind to the Gal4 upstream activation sequence (UAS) in the luciferase expression vector and induce luciferase expression following GR agonist binding. The cells were selected for at least 2 weeks in G418+ hygromycin. The resulting cell line is referred to as HEK293/UASLuc/pBIND-GR.
Three-fold serial dilutions of test compounds were prepared in 100% DMSO, transferred to fresh assay media, and added to the cells. […] The last well in the plate served as blank control containing only the assay media and 0.2% DMSO (untreated well) and was plotted as a continuation of the 3-fold serial dilution.
Forty-eight hours later, luciferase activity was determined after the addition of One-Glo™ reagent (Promega, Cat #E6130). Relative light units (RLUs) were measured on an Envision luminometer (PerkinElmer) and EC50 values were determined using a four-parameter logistic equation over a 10-point dose response curve (GraphPad Prism). The signal to noise (S/N) was determined by taking the ratio of the highest RLU on the dose response curve to the RLU in the untreated wells.

[3] = Plasma stability in human plasma; format: in vitro ADME; conditions: 37° C.; for Percent Remaining (%) 1 h / Percent Remaining (%) 8 h / Percent Remaining (%) 24 h / Percent Remaining (%) […]: BQL: Below Quantitation Limit
Experimental: Plasma stability can be measured according to the following protocol.
Preheated 0.05 M sodium phosphate and 0.07 M NaCl buffer, pH 7.4: 14.505 g/L Na2HPO4_12H2O, 1.483 g/L NaH2PO4_2H2O and 4.095 g/L NaCl were dissolved in deionized water. The basic solution was then titrated with the phosphoric acid to pH 7.40 and stored refrigerated for up to 7 days. pH was checked on the day of experiment and adjusted if outside specification of 7.4+/−0.1.
Plasma preparation: frozen plasma were thawed by placing at 37° C. The plasma was centrifuged at 3,000 rpm for 8 minutes to remove clots, pipetted and the supernatant was pooled as the plasma to be used in the experiment. The pH of the plasma was checked and recorded and only used within the range of pH 7.4 to pH 8. If higher than pH 8, the plasma was discarded. The initial pH of the plasma was not adjusted to pH 7.4 with acid or by bubbling with CO2. By using a 5% CO2 incubator and PBS buffer, a pH of 7.4 was reached after a 4 hour equilibrium dialysis time. The plasma was put on ice until used.
Test compounds and reference compounds spiking solution. 0.5 mM test compounds spiking solution A: 10 μL of 10 mM test compounds stock solution was added to 190 μL DMSO. 0.02 mM spiking solution B: 40 μL of spiking solution A were added to 960 μL of 0.05 mM Sodium phosphate buffer with 0.5% BSA.
The plasma and spiking solution B were pre-warmed at 37° C. for 5 min. 10 μL of pre-warmed spiking solution B was added into the wells designated for all the time points (0, 0.25, 1, 8, 24 h). For 0-min, 400 μL of ACN containing 1S was added to the wells of 0-min plate and then 90 μL of plasma was added. 90 μL of pre-warmed plasma was added into the wells designated for the time points (0.25, 1, 8, 24 h), and start timing. At 0.25, 1, 8, 24 h, 400 μL of ACN containing IS was added to the wells of corresponding plates, respectively, to stop the reaction. After quenching, the plates were shaken on a vibrator (IKA, MTS 2/4) for 10 min (600 rpm/min) and then centrifuged at 5594 g for 15 min (Thermo Multifuge×3R). 50 μL of the supernatant from each well was transferred into a 96-well sample plate containing 50 μL of ultra pure water (Millipore, ZMQS50F01) for LC/MS analysis.

[4] = Solubility of payloads and linker-payloads; conditions: aqueous DMSO (20%)

CCCC1O[C@@H]2C[C@H]3[C@@H]4C[C@H](F)C5=CC(=O)C=C[C@]5(C)[C@@]4(F)[C@@H](O)C[C@]3(C)[C@]2(C(=O)CO)O1 (stereo in doubt) [Compound 100, (1S,2S,4R,8S,9S,11S,12R,13S,19S)-12,19-Difluoro-11-hydroxy-8-(2-hydroxyacetyl)-9,13-dimethyl-6-propyl-5,7-dioxapentacyclo[10.8.0.0^2,^9.0^4,^8.0^13,^18]icosa-14,17-dien-16-one]
S/N [1]: 14.5 | fold more potent than 1a (budesonide) ([2]; EC50 comparison): 5.6 fold | fold more potent than Dexamethasone ([2]; EC50 comparison): 5.9 fold | EC50 [2]: 0.0547 nM

CCCC1O[C@@H]2C[C@H]3[C@@H]4CCC5=CC(=O)C=C[C@]5(C)[C@H]4[C@@H](O)C[C@]3(C)[C@]2(C(=O)COCNC(=O)CN)O1 (stereo partly drawn) [Compound 103a, 2-Amino-N-({2-[(1S,2S,4R,8S,9S,11S,12S,13R)-11-hydroxy-9,13-dimethyl-16-oxo-6-propyl-5,7-dioxapentacyclo[10.8.0.0^2,^9.0^4,^8.0^13,^18]icosa-14,17-dien-8-yl]-2-oxoethoxy}methyl)acetamide]
half-life at 2 µM [3]: 16.8 h | Percent Remaining (%) 0 h [3]: 100.00% | Percent Remaining (%) 1 h [3]: 96.48% | Percent Remaining (%) 8 h [3]: 78.87% | Percent Remaining (%) 24 h [3]: 38.03% | Percent Remaining (%) […] [3]: 107.04% | S/N [1]: 14.6 | solubility (physchem): < 20 µg/mL | EC50 [2]: 0.484 nM | EC50 values after spacer attachment relative to parent steroid [2]: comparable to 1a

CCCC1O[C@@H]2C[C@H]3[C@@H]4C[C@H](F)C5=CC(=O)C=C[C@]5(C)[C@@]4(F)[C@@H](O)C[C@]3(C)[C@]2(C(=O)COCNC(=O)CN)O1 (stereo partly drawn) [Compound 103b, 2-Amino-N-({2-[(1S,2S,4R,8S,9S,11S,12R,13S,19S)-12,19-difluoro-11-hydroxy-9,13-dimethyl-16-oxo-6-propyl-5,7-dioxapentacyclo[10.8.0.0^2,^9.0^4,^8.0^13,^18]icosa-14,17-dien-8-yl]-2-oxoethoxy}methyl)acetamide]
S/N [1]: 16.6 | solubility (physchem): < 20 µg/mL | EC50 values after spacer attachment relative to parent steroid [2]: comparable to 100

CCCC1O[C@@H]2C[C@H]3[C@@H]4C[C@H](F)C5=CC(=O)C=C[C@]5(C)[C@@]4(F)[C@@H](O)C[C@]3(C)[C@]2(C(=O)COC(=O)c2ccc(CN)cc2)O1 (some centres unmarked) [Compound 105a]
fold less potent than 100 ([2]; EC50 comparison after spacer attachment to 100, text): 2.7 fold

CCCC1O[C@@H]2C[C@H]3[C@@H]4CCC5=CC(=O)C=C[C@]5(C)[C@H]4[C@@H](O)C[C@]3(C)[C@]2(C(=O)COCNC(=O)CNC(=O)OCc2ccc(NC(=O)[C@H](CCCNC(N)=O)NC(=O)[C@@H](NC(=O)CCOCCOCCOCCOCCNC(=O)CCC(=O)N3Cc4ccccc4C#Cc4ccccc43)C(C)C)cc2)O1 (some centres unmarked) [LP9]
solubility [4]: < 20 µg/mL

CCCC1O[C@@H]2C[C@H]3[C@@H]4C[C@H](F)C5=CC(=O)C=C[C@]5(C)[C@@]4(F)[C@@H](O)C[C@]3(C)[C@]2(C(=O)COCNC(=O)CNC(=O)OCc2ccc(NC(=O)[C@H](CCCNC(N)=O)NC(=O)[C@@H](NC(=O)CCOCCOCCOCCOCCNC(=O)CCC(=O)N3Cc4ccccc4C#Cc4ccccc43)C(C)C)cc2)O1 (some centres unmarked) [LP10]
solubility [4]: < 20 µg/mL

CCN(CC)CCOC(=O)c1ccc(N)cc1 [Procaine]
half-life at 2 µM [3]: < 0.25 h | Percent Remaining (%) 0 h [3]: 100.00% | Percent Remaining (%) 1 h [3]: BQL | Percent Remaining (%) 8 h [3]: BQL | Percent Remaining (%) 24 h [3]: BQL | Percent Remaining (%) […] [3]: BQL
